Drawing on patent US20100029668A1, “NOVEL PYRIDAZINE DERIVATIVES” (SYNGENTA CROP PROTECTION, INC., priority 2006, published 2010), this text covers inhibition and melting point for 4 compounds.

Data set [1] concerns Pyrenophora teres (Helminthosporium teres). Briefly: Pyrenophora teres (Helminthosporium teres)/Barley/Preventive (action against net blotch on barley). The format is in vivo. The conditions noted are these: 96 h, preventive spray, barley plants cv. Regina, assessed 4 days after inoculation, read-out: inhibit fungal infestation. On the procedure:
Pyrenophora teres (Helminthosporium teres)/Barley/Preventive (Action Against Net Blotch on Barley) 1-week-old barley plants cv. Regina are treated with the formulated test compound in a spray chamber. Two days after application barley plants are inoculated by spraying a spore suspension (2.6×10^4 conidia/ml) on the test plants. After an incubation period of 4 days at 20° C. and 95% r. h. the disease incidence is assessed.

Data set [2] concerns Maqnaporthe grisea (Pyricularia oryzae). Kind of data set: whole plant or invertebrate. Format: in vivo. The conditions noted are these: 144 h, read-out: inhibit fungal infestation.
A further data set concerns Botrvtis cinerea. Kind of data set: Botrvtis cinerea/Tomato/Preventive (action against Botrytis on tomato). The conditions noted are these: Solanum lycopersicum, 72 h, preventive spray, tomato plants cv. Roter Gnom, assessed 3 days after inoculation, read-out: inhibit fungal infestation. Format: in vivo. The protocol:
Botrvtis cinerea/Tomato/Preventive (Action Against Botrytis on Tomato) 4 weeks old tomato plants cv. Roter Gnom are treated with the formulated test compound in a spray chamber. Two days after application tomato plants are inoculated by spraying a spore suspension on the test plants. After an incubation period of 3 days at 20° C. and 95% r. h. in a greenhouse the disease incidence is assessed.

For a further data set, the system named is Puccinia recondita. Kind of data set: Puccinia recondita/Wheat/Preventive (action against brown rust on wheat). Format: in vivo. The conditions noted are these: 264 h, preventive spray, wheat plants cv. Arina, assessed 11 days after inoculation, read-out: inhibit fungal infestation. On the procedure: Puccinia recondita /Wheat/Preventive (Action Against Brown Rust on Wheat) 1 week old wheat plants cv. Arina are treated with the formulated test compound in a spray chamber. One day after application wheat plants are inoculated by spraying a spore suspension ([…] uredospores/ml) on the test plants. After an incubation period of 1 day at 20° C. and 95% r. h. plants are kept for 10 days 20° C./18° C. (day/night) and 60% r.h. in a greenhouse. The disease incidence is assessed 11 days after inoculation.

The next data set has as its system Alternaria solani. Kind of data set: Alternaria solani/Tomato/Preventive (action against Alternaria on tomato). The format is in vivo. The conditions noted are these: 96 h, preventive spray, tomato plants cv. Roter Gnom, assessed 4 days after inoculation, read-out: inhibit fungal infestation. The protocol: Alternaria solani/Tomato/Preventive (Action Against Alternaria on Tomato) 4 weeks old tomato plants cv. Roter Gnom are treated with the formulated test compound in a spray chamber. Two days after application tomato plants are inoculated by spraying a spore suspension on the test plants. After an incubation period of 4 days at 22° C./18° C. and 95% r. h. in a greenhouse the disease incidence is assessed.

The test system of the next data set is Uncinula necator. Briefly: Uncinula necator/Grape/Preventive (action against powdery mildew on grape). Format: in vivo. Conditions: Erysiphe necator, 168 h, preventive spray, grape seedlings cv. Gutedel, assessed 7 days after inoculation, read-out: inhibit fungal infestation. The protocol:
Uncinula necator/Grape/Preventive (Action Against Powdery Mildew on Grape) 5 weeks old grape seedlings cv. Gutedel are treated with the formulated test compound in a spray chamber. One day after application grape plants are inoculated by shaking plants infected with grape powdery mildew above the test plants. After an incubation period of 7 days at 24° C./22° C. and 70% r. h. under a light regime of 14/10 h (light/dark) the disease incidence is assessed.

As a reminder, the melting point is the temperature of the solid-liquid transition.

For `CSc1ccc(-c2c(C)nnc(C)c2-c2ncc(Cl)cc2Cl)nc1` [I.u.010, 4-(3,5-dichloro-pyridin-2-yl)-3,6-dimethyl-5-(5-methylsulfanyl-pyridin-2-yl)-pyridazine], the inhibition at 200 ppm in data set [1] and in data set [2] was not below 80% each time.
`CSc1ccc(-c2c(C)n[nH]c(=O)c2-c2ncc(Cl)cc2Cl)nc1` [I.u.006, 4-(3,5-dichloro-pyridin-2-yl)-6-methyl-5-(5-methylsulfanyl-pyridin-2-yl)-2H-pyridazin-3-one] gave a melting point of 229 °C.
Turning to `COc1nnc(C)c(-c2ccc(SC)cn2)c1-c1ncc(Cl)cc1Cl` [I.u.009, 4-(3,5-dichloro-pyridin-2-yl)-3-methoxy-6-methyl-5-(5-methylsulfanyl-pyridin-2-yl)-pyridazine], the melting point fell in the range of 170 to 171 °C. Besides, the inhibition at 200 ppm in the data set on Botrvtis cinerea is not below 80%. In addition, in the data set on Puccinia recondita, the inhibition at 200 ppm is not below 80%.
`CSc1ccc(-c2c(C)nnc(Cl)c2-c2ncc(Cl)cc2Cl)nc1` [I.u.008, 3-chloro-4-(3,5-dichloro-pyridin-2-yl)-6-methyl-5-(5-methylsulfanyl-pyridin-2-yl)-pyridazine] showed a melting point of 163 °C. Moreover, the inhibition at 200 ppm in the data set with Alternaria solani was not below 80%. For the same compound, the inhibition at 200 ppm in the data set with Uncinula necator was not below 80%. The inhibition at 200 ppm in data set [1] was not below 80%. In addition, the inhibition at 200 ppm with Botrvtis cinerea was not below 80%.
